This is an account of results in paper PMC8097972 (Journal of neurochemistry, 2020).

Test [1] has as its system DIO mice. Nature of the test: Intraperitoneal glucose tolerance test in obese mice. Conditions: day +13 after OB pump start, 12 h fasted, vs PBS; treatment p = 0.0146. The format is in vivo, mouse.
In test [2] the target is Kv1.3 (Rattus norvegicus, UniProt P15384). Nature of the test: Whole-cell patch-clamp inhibition of Kv1.3 in transfected HEK293 cells. The format is cell-based. Conditions: 10 nM; T0 vs T5 (225 s); two-way mixed-design ANOVA. (In patch-clamp work, channel activity is measured electrically.)
The test system of test [3] is DIO mice. Put plainly: Indirect calorimetry. Type of test: in vivo, mouse. Conditions: +2 to +12, light and dark cycle; light p = 0.496, dark p = 0.2581.
The subject of test [4] is mitral cells. The note with it: cited from earlier work.
Test [5] has as its system Kv1.3. The note with it: ref Knaus et al. 1995; Fadool and Levitan 1998; cited from earlier work.

Kv1.3 (Rattus norvegicus, UniProt P15384), sequence (P15384 whole entry): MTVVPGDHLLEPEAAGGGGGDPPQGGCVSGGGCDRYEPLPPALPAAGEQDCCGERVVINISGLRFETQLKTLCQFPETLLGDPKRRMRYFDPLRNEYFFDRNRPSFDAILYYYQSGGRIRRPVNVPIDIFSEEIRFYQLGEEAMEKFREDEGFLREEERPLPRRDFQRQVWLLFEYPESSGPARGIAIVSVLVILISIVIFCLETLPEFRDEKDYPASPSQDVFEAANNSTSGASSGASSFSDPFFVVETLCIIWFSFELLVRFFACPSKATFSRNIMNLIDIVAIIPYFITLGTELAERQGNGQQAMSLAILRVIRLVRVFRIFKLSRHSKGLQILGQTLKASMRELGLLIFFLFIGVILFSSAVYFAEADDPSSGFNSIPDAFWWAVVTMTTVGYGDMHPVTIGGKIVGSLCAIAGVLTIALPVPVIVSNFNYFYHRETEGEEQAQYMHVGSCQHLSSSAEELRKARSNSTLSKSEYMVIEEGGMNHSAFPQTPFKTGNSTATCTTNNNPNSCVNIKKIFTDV

In the case of “QDMgTx: HisMgTx conjugated to His-PIMA-ZW capped CdSe-ZnS QDs by metal-histidine self-assembly (TIINVKCTSPKQCLPPCKAQFGQSAGAKCMNGKCKCYPH; His tag; self-assembled on CdSe-ZnS quantum dots; UniProt P40755 1-39, looked up)”, the “glucose clearance (IPGTT)” value in test [1] is listed as “cleared glucose significantly faster than control animals”. Besides, in test [2], the “change in Kv1.3 peak current amplitude (in words)” value is listed as “significantly decreased Kv1.3 peak current amplitude”. Besides, the “energy expenditure (EE)” value in test [3] is “no change in EE in either the light or dark cycle”.
As for insulin, in test [4] (following diet-induced obesity, ref Fadool et al. 2011), the “ability to increase mitral cell activity after diet-induced obesity” value is “significantly reduced”.
Take “margatoxin (TIINVKCTSPKQCLPPCKAQFGQSAGAKCMNGKCKCYPH; UniProt P40755 1-39, looked up) [MgTx]”: in test [5], the “koff (printed as a time)” value was 2 h and the “kon (in words)” value is listed as “rather slow for a vestibule blocker”. Moreover, the “effect on mitral cell spike firing” value in test [4] (ref Mast and Fadool 2012, Thiebaud et al. 2016) is “increase the spike firing frequency and reduce the pause duration between AP trains, but have less effect on ISI”.
